Assay results published in patent US5118791A, “Biologically active polypeptides based on transforming growth factor-β” (Genentech, Inc., priority 1991, dated 1992).
Where no end group is shown, it is not given here.

Columns and labels:
Format in all cases: cell-based
[1] = system: Mu-1-Lv (ATCC CCL 64) mink lung epithelial-like cell; experiment: Inhibition of proliferation of cultured mink lung cells (3H-thymidine incorporation); conditions: CCL-64 mink lung cells, 24 hours, FIG. 1
Experimental: The cell line Mu-1-Lv (ATCC CCL 64, Rockville, MD), a mink lung epithelial-like cell, was used to detect TGF-β activity. Mul-1-Lv cells maintained by weekly passage in vitro in CMEM consisting of Eagle's minimum essential medium supplemented with 0.1 mM nonessential amino acids, 2 mM L-glutamine, 1 MM sodium pyruvate (Gibco, Grand Island, NY), and 10% heat-inactivated fetal bovine serum (FBC; HyClone Laboratoris, Logan, UT) were placed into 96-well flat-bottom microtiter plates (10,000/well; Falcon 3075) at a final volume of 200 μl/well. The plates were incubated at 37° C.+5% CO2 for 24 hours. During the last 4 hours of culture, 1 μCi of {3H} thymidine (20 μl/well, 5.0 Ci/mmol; Amersham Corp.) was added. After labeling, 100 μl/well of 10 x Trypsin-EDTA was added per well and the plates were incubated for an additional 15 min. at 37° C. Cells were harvested onto glass filters and counted in a liquid scintillation counter (LS 6800, Beckman, Fullerton, CA). Results (pg/ml of TGF-β) were calculated based on percent inhibition of thymidine incorporation compared with a rHuTGF-β1 laboratory standard.

human lymphocytes [2] = experiment: Inhibition of human lymphocyte proliferation in response to tetanus toxoid; conditions: tetanus toxoid 2 LF units/ml, six days, dose-dependent, FIG. 4
Experimental: The medium employed was complete RPMI-1640, i.e., RPMI-1640 (Gibco) supplemented with 10% human pooled AB serum (Hazelton Biologics Inc., Lenexa, KS), 100 u/ml penicillin/100 μg/ml streptomycin, 2 mM L-glutamine (Gibco), 1 mM sodium pyruvate (Gibco), 1% MEM non-essential amino acids (Gibco, 100x), 25 mM HEPES (Gibco), and 1% Nutridoma (Boehringer Manheim).
Heparinized venous blood (10 u/ml; bovine lung, Upjohn) was mixed with an equal volume of isotonic saline. Approximately 30 ml of the diluted blood was layered over 15 ml of lymphocyte separation medium (LSM, Organon Technika) in […] conical polypropylene centrifuge tubes (Falcon Plastics). The tubes were centrifuged for 40 min. at 400× g at 22° C. […]
To each of sextuplicate wells of a 96-well flat-bottom microtiter plate (Falcon Plastics) was added 100 μl of the cell suspension. […] The filter discs were dried and suspended in 2 ml of liquid scintillation cocktail (Econofluor, New England Nuclear) in mini-scintillation vials and incorporated radioactivity was determined by liquid scintillation spectrophotometry. Data were expressed as mean counts per min. of the quadruplicate samples, where the cpm of the media control was substrated from the cpm of the stimulated sample.

human lymphocytes [3] = experiment: Inhibition of human lymphocyte proliferation in response to PMA; conditions: PMA 40 ng/ml, three days, dose-dependent, FIG. 5
human lymphocytes [4] = experiment: Inhibition of human lymphocyte proliferation in response to PHA-P; conditions: PHA-P 1 μg/ml, three days, dose-dependent, FIG. 6

Substance | cpm incorporated (activity) as a function of the reciprocal of dilution [1] | inhibition of proliferation of human lymphocytes in response to tetanus toxoid (human lymphocytes [2]) | inhibition of proliferation of human lymphocytes in response to PMA (human lymphocytes [3]) | inhibition of proliferation of human lymphocytes in response to PHA-P (human lymphocytes [4])
CVRQLYIDFRKDLGWK [free polypeptide] | comparable, i.e., low at the low dilution level and high at the high dilution levels | – | – | –
TGF-β1: mature, full-length transforming growth factor-β1 | – | also exhibits this dose-dependent effect | also exhibits this dose-dependent effect | also exhibits this dose-dependent effect
